Assay results reported in patent US5633381A, “(Z,Z), (Z,E) and (E,Z) isomers of substituted bis(phenylmethylene)cycloketones” (Berlex Laboratories, Inc., priority 1994, dated 1997).
Counter-ions that a name gives are not always drawn.

Columns and labels:
Assay type in all cases: biochemical
Factor Xa (HFXa) = Factor Xa (HFXa) (Homo sapiens, UniProt P00742); assay: Assay of free Factor Xa: initial rate of cleavage of peptide p-nitroanilide S-2222; conditions: free FXa, Tris-HCl pH 7.5, 164 μM S-2222, 3 nM HFXa, room temperature
Factor Xa (HFXa), sequence (P00742 235-488 limits assumed): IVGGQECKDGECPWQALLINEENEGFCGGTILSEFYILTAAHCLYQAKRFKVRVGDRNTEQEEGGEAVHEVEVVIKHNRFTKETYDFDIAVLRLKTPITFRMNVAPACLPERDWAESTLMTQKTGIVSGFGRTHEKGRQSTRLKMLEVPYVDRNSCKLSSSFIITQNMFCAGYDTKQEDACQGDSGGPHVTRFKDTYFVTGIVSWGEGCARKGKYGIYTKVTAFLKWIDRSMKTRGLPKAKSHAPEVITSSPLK
Factor Xa (HFXa), sequence (P00742 41-179 limits assumed): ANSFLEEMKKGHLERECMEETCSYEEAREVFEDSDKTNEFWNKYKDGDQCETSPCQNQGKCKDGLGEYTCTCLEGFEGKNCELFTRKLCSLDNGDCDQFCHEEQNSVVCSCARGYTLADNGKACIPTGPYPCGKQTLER
Method: (§1) There are a number of tests which illustrate the activity of the compounds of this invention. Due to the light sensitivity of the test Compounds, experiments were performed under minimally lighted conditions. The tests follow. ASSAY OF FREE FACTOR XA AND THROMBIN Activity of Factor Xa and thrombin (IIa) were determined as the initial rate of cleavage of peptide p-nitroanilide by the enzymes. […] Initial rate of the first 2 minutes was used for calculation of the enzyme activities.

thrombin (IIa) = thrombin (IIa) (Homo sapiens, UniProt P00734); assay: Assay of free thrombin (IIa): initial rate of cleavage of peptide p-nitroanilide S2302; conditions: Tris-HCl pH 7.5, 300 μM S2302, 20 nM thrombin, room temperature
Method: as §1

[1] = system: citrated plasma clotting (activated partial thromboplastin time); assay: Coagulation assay: activated partial thromboplastin time (APTT); conditions: human plasma, Actin Reagent, 37° C.
Method: (§2) There are a number of tests which illustrate the activity of the compounds of this invention. Due to the light sensitivity of the test Compounds, experiments were performed under minimally lighted conditions. The tests follow.
(§3) Two coagulation assays, the activated partial thromboplastin time (APTT) and the prothrombin time (PT), were used to evaluate the compounds. An Electra 900C coagulometer with the software package was used. The Actin Reagent (APTT) or Rabbit Brain Thromboplastin (PT) is added to citrated plasma sample in equal volumes (100 μL each) and allowed to incubate for 5 min. at 37° C. […] (100 μL) is added and time to clot noted. Dilution series for compounds undergoing testing were made in human plasma prior to assay.

[2] = system: citrated plasma clotting (prothrombin time); assay: Coagulation assay: prothrombin time (PT); conditions: human plasma, Rabbit Brain Thromboplastin, 37° C.
Method: as §2, §3

human FXa = target: T1, human FXa (Homo sapiens, UniProt P00742); assay: In vitro plasma matrix effect on anti-FX activity (compounds diluted in 100% rat plasma); conditions: compound in 100% rat plasma, 30 min incubation, S2222, pH 7.5, room temperature, read-out: Ki (Xa)
T1 construct: 6 nM of human FXa; purchased Enzyme Research Lab; USA
T1 sequence (P00742 235-488 limits assumed): as the sequence (P00742 235-488 limits assumed) above
T1 sequence (P00742 41-179 limits assumed): as the sequence (P00742 41-179 limits assumed) above
Method: as §2
IN VITRO PLASMA MATRIX EFFECT ON ANTI-FX ACTIVITY:
Compound stock solutions (10 mM in DMSO) were diluted in 100% rat plasma in a series of 1 to 3 dilutions in the following concentration ranges: (1) from 300 μM to 1.23 μM; (2) from 10 μM to 0.041 μM; (3) from 100 μM to 0.412 μM. After 30 minutes incubation (in dark) at room temperature, 20 μL of diluted compounds (in rat plasma) were added in duplicate to a 96-well flat-bottom microtiter plate (Dynatech Laboratories, USA). Thirty microliter of assay buffer containing 50 mM Tris HCl, pH 7.5, […], and 0.1% polyethylene glycol 6000 was added to each sample well followed by 100 ul of 6 nM of human FXa (in assay buffer) (Enzyme Research Lab. USA). The plate was mixed in a plate shaker for about 30 seconds. The reaction was started by the addition of 50 ul of 656 uM of chromogenic substrate S2222 in assay buffer (Pharmacia Hepar Inc. USA). FXa activity was measured at […] at room temperature for five minutes at 10 seconds interval in a THERMOmax microtiter plate reader (Molecular Devices). An internal standard was assayed in parallel as control. Initial rate as mOD/min was determined using OD readings in the first two minutes of the reaction. IC50 values were determined with a 4-parameter curve fit program provided by the Molecular Devices' software, SOFTmax 2.32. Ki values were then calculated with the following equation: Ki=IC50 /(1+[S]/Km). […]

SMILES	Ki (Factor Xa (HFXa)) [nM]	Ki (thrombin (IIa)) [nM]	APTT: dose of compound required to produce a 2 fold increase in clot time [1] [µg/mL]	PT: dose of compound required to produce a 2 fold increase in clot time [2] [µg/mL]	Ki (human FXa) [nM]
N=C(N)c1cccc(/C=C2/CCCC/C(=C/c3cccc(C(=N)N)c3)C2=O)c1 [EX. 13 Z,Z, Z,Z-1,3-bis[(3'-(amino(imino)methyl)phenyl)methylene]-2-oxocycloheptane, trifluoroacetate]	5.63 ± 1.97	1360 ± 500	–	–	–
C/N=C(\N)c1ccc(/C=C2/CCCC/C(=C/c3ccc(C(=N)N)cc3)C2=O)cc1 [EX. 8 Z,Z, Z,Z-1-(4'-(amino(imino)methyl)phenyl)methylene-3-(4'-(N'-methylamino-(imino)methyl)phenyl)methylene-2-oxocycloheptane, trifluoroacetate]	12.3 ± 1.8	1580 ± 290	–	–	–
N=C(N)c1ccc(/C=C2/CCCC/C(=C/c3ccc(C(=N)N)cc3)C2=O)cc1 [EX. 2 Z,Z, Z,Z-1,3-bis[(4'-(amino(imino)methyl)phenyl)methylene]-2-oxocycloheptane, trifluoroacetate]	1.12 ± 0.28	525	0.3	0.3	3.45 ± 0.07
N=C(N)c1ccc(/C=C2/CCCCC/C(=C\c3ccc(C(=N)N)cc3)C2=O)cc1 [EX. 15 Z,E, Z,E-1,3-bis[(4'-(amino(imino)methyl)phenyl)methylene]-2-oxocyclooctane]	128 ± 25	198 ± 18	–	–	–
N=C(N)c1ccc(/C=C2\CCC/C(=C\c3ccc(C(=N)N)cc3)C2=O)cc1 [EX. 3 E,E, E,E-1,3-bis[(4'-(amino(imino)methyl)phenyl)methylene]-2-oxocyclohexane, phosphate]	5650 ± 350	2970 ± 480	–	–	–
N=C(N)c1ccc(/C=C2/CCCCC/C(=C/c3ccc(C(=N)N)cc3)C2=O)cc1 [EX. 15 Z,Z, Z,Z-1,3-bis[(4'-(amino(imino)methyl)phenyl)methylene]-2-oxocyclooctane]	13.7 ± 5.5	619 ± 193	–	–	–
N=C(N)c1ccc(/C=C2/CC(C(=O)O)C/C(=C/c3ccc(C(=N)N)cc3)C2=O)cc1 (stereo not shown) [EX. 11 Z,Z, Z,Z-3,5-bis[(4'-(amino(imino)methyl)phenyl)methylene]-4-oxocyclohexanoic acid, trifluoroacetate]	29.1 ± 5.8	120000 ± 7000	–	–	–
N=C(N)c1ccc(/C=C2/CCCC/C(=C\c3ccc(C(=N)N)cc3)C2=O)cc1 [EX. 2 Z,E, Z,E-1,3-bis[(4'-(amino(imino)methyl)phenyl)methylene]-2-oxocycloheptane, trifluoroacetate]	201 ± 57	132 ± 2	1.6	3.2	210 ± 34
CNC(=N)c1ccc(/C=C2\CCCC/C(=C\c3ccc(C(=N)N)cc3)C2=O)cc1 [EX. 7 E,E, E,E-1-(4'-(amino(imino)methyl)phenyl)methylene-3-(4'-(N'-methylamino-(imino)methyl)phenyl)methylene-2-oxocycloheptane, hydrochloride]	29000	12900	–	–	–
N=C(N)c1cccc(/C=C2/CCCC/C(=C\c3cccc(C(=N)N)c3)C2=O)c1 [EX. 13 Z,E, Z,E-1,3-bis[(3'-(amino(imino)methyl)phenyl)methylene]-2-oxocycloheptane, trifluoroacetate]	143 ± 38	1000 ± 30	–	–	–
N=C(N)c1ccc(/C=C2/CCCCCCC/C(=C/c3ccc(C(=N)N)cc3)C2=O)cc1 [EX. 14 Z,Z]	111 ± 2	741 ± 161	–	–	–
N=C(N)c1ccc(/C=C2\CCCC/C(=C\c3ccc(C(N)=O)cc3)C2=O)cc1 [EX. 5 E,E, E,E-1-(4'-(amino(imino)methyl)phenyl)methylene-3-(4'-(aminocarbonyl)phenyl)methylene-2-oxocycloheptane, hydrochloride]	> 5000	> 5000	–	–	–
N=C(N)c1ccc(/C=C2/CCCC/C(=C/c3ccc(C(N)=O)cc3)C2=O)cc1 [EX. 6 Z,Z, Z,Z-1-(4'-(amino(imino)methyl)phenyl)methylene-3-(4'-(aminocarbonyl)phenyl)-methylene-2-oxocycloheptane, trifluoroacetate]	52.1 ± 2.5	107 ± 2	–	–	–
N=C(N)c1ccc(/C=C2\CCCC/C(=C\c3ccc(C(=N)N)cc3)C2=O)cc1 [EX. 1 E,E, E,E-1,3-bis[(4'-(amino(imino)methyl)phenyl)methylene]-2-oxocycloheptane, hydrochloride]	16500 ± 800	6200 ± 530	17.5	> 30	27000 ± 2600
CN(C)C(=N)c1ccc(/C=C2/CCCC/C(=C/c3ccc(C(=N)N)cc3)C2=O)cc1 [EX. 10 Z,Z, Z,Z-1-(4'-(amino(imino)methyl)phenyl)methylene-3-(4'-(N',N'-dimethylamino (imino)methyl)phenyl)methylene-2-oxocycloheptane]	17.8 ± 2.6	1390 ± 140	–	–	–
N=C(N)c1cccc(/C=C2\CCCC/C(=C\c3cccc(C(=N)N)c3)C2=O)c1 [EX. 12 E,E, E,E-1,3-bis[(3'-(amino(imino)methyl)phenyl)methylene]-2-oxocycloheptane, dihydrochloride]	1390 ± 210	2140 ± 150	–	–	–
N=C(N)c1ccc(C=C2CCCCC(=Cc3ccc(C(N)=O)cc3)C2=O)cc1 [EX. 6 Z,E:E,Z, Z,E/E,Z-1-(4'-(amino(imino)methyl)phenyl)methylene-3-(4'-(aminocarbonyl)phenyl)-methylene-2-oxocycloheptane, trifluoroacetate]	1850 ± 10	380	–	–	–
N=C(N)c1ccc(/C=C2/CCCCCC/C(=C\c3ccc(C(=N)N)cc3)C2=O)cc1 [EX. 16 Z,E, Z,E-1,3-bis[(4'-(amino(imino)methyl)phenyl)methylene]-2-oxocyclononane]	324 ± 48	347 ± 35	–	–	–
N=C(N)c1ccc(/C=C2/CCCCCCC/C(=C\c3ccc(C(=N)N)cc3)C2=O)cc1 [EX. 14 Z,E]	509 ± 26	146 ± 27	–	–	–
N=C(N)c1ccc(/C=C2/CCC/C(=C\c3ccc(C(=N)N)cc3)C2=O)cc1 [EX. 4 Z,E, Z,E-1,3-bis[(4'-(amino(imino)methyl)phenyl)methylene]-2-oxocyclohexane, trifluoroacetate]	422 ± 167	115 ± 71	–	–	–
N=C(N)c1ccc(/C=C2/CCCCCC/C(=C/c3ccc(C(=N)N)cc3)C2=O)cc1 [EX. 16 Z,Z, Z,Z-1,3-bis[(4'-(amino(imino)methyl)phenyl)methylene]-2-oxocyclononane]	6 ± 2.8	527 ± 52	–	–	–
N=C(N)c1ccc(/C=C2/CCC/C(=C/c3ccc(C(=N)N)cc3)C2=O)cc1 [EX. 4 Z,Z, Z,Z-1,3-bis[(4'-(amino(imino)methyl)phenyl)methylene]-2-oxocyclohexane, trifluoroacetate]	28.9 ± 7	1340 ± 370	–	–	–
CNC(=N)c1ccc(C=C2CCCCC(=Cc3ccc(C(=N)N)cc3)C2=O)cc1 [EX. 8 Z,E:E,Z, Z,E/E,Z-1-(4'-(amino(imino)methyl)phenyl)methylene-3-(4'-(N'-methylamino (imino)methyl)phenyl)methylene-2-oxocycloheptane, trifluoroacetate]	504 ± 44	363 ± 19	–	–	–
